{"source": "BindingDB's records for doi:10.1021/acs.jmedchem.5b01913", "about": "(Dalian University of Technology, 2016)", "key": {"[1]": {"assay": "Inhibition of Bcl2 in human DMS53 cells assessed as growth inhibition"}, "[2]": {"assay": "Inhibition of MDM2 in human HCT116 p53+/+ cells assessed as growth inhibition"}}, "data": [{"smiles": "CC(C)Oc1ccc(C(=O)Nc2c(C(=O)O)nn(-c3ccc(Oc4ccccc4)cc3)c2-c2ccc(OC(C)C)cc2)cc1", "values": [{"measurement": "IC50", "setting": "[1]", "value": 5, "unit": "µM"}, {"measurement": "IC50", "setting": "[2]", "value": 5, "unit": "µM"}]}]}
